What all share (experiment): ABPP selectivity across brain serine hydrolases – biochemical, gel-based competitive ABPP, mouse brain membrane, set 1, selectivity assay for DAGLb inhibitor project, late-stage follow-up (AID 602311)
For one test, the system named is LYPLA2. The settings on record: gel-based competitive ABPP fluorescence, at 10 µM, stronger effect = higher value.
The test system of a further test is APEH. The settings on record: gel-based competitive ABPP fluorescence, at 10 µM, stronger effect = higher value.
The test system of a further test is ABHD12. The settings on record: gel-based competitive ABPP fluorescence, at 10 µM, stronger effect = higher value.
Another test has as its system MAGL. Particulars: gel-based competitive ABPP fluorescence, at 10 µM, stronger effect = higher value.
The next test concerns KIAA1363. Particulars: gel-based competitive ABPP fluorescence, at 10 µM, stronger effect = higher value.
Test [1] deals with Monoacylglycerol lipase ABHD6 (Mus musculus) (UniProt Q8R2Y0). The settings on record: gel-based competitive ABPP fluorescence, at 10 µM, stronger effect = higher value.
Test [2] has as its target Acyl-protein thioesterase 1 (Mus musculus) (UniProt P97823). The settings on record: gel-based competitive ABPP fluorescence, LYPLA1, at 10 µM, stronger effect = higher value.
A further test concerns FAAH. The settings on record: gel-based competitive ABPP fluorescence, at 10 µM, stronger effect = higher value.

Data on 21 compounds can be found in PubChem BioAssay AID602311 (The Scripps Research Institute Molecular Screening Center, 2012).

Calls of active or inactive are those of the source. How the calls were made is not given here.

Chain of Acyl-protein thioesterase 1 (Mus musculus) (P97823 whole entry, looked up): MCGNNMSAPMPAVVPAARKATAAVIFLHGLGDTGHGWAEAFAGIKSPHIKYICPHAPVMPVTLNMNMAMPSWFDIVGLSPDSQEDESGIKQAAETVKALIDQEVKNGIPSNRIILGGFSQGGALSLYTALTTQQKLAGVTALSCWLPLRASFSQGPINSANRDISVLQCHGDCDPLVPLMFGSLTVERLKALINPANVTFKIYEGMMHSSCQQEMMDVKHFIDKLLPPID
Chain of Monoacylglycerol lipase ABHD6 (Mus musculus) (Q8R2Y0 whole entry, looked up): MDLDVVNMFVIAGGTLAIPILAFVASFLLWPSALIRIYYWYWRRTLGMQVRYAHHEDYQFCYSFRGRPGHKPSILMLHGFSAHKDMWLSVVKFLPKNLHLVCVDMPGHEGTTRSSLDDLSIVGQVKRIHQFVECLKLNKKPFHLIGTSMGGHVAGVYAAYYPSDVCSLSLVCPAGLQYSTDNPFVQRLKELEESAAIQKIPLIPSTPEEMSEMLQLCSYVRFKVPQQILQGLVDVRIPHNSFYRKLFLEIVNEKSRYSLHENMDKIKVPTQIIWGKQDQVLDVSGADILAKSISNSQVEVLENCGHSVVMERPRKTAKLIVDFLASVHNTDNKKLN

`O=C(c1ccc(-c2ccc(-c3cn(C(=O)N4CCCCC4Cc4ccccc4)nn3)cc2)cc1)N1CCCCC1` (stereo not drawn): the inhibition (usually the share of the control response that was lost under treatment) in the test with LYPLA2 was 0% (inactive); in the test on APEH, 0% (inactive); with ABHD12, 0% (inactive); with MAGL, 0% (inactive); with KIAA1363, 10% (inactive); in test [1] it was 85%. Besides, the inhibition was 0% (inactive) in test [2] and 10% (inactive) in the test with FAAH.

`O=C(N1CCCCC1c1ccccc1)n1cc(C(O)(c2ccccc2)c2ccccc2)nn1` (stereo not drawn): the inhibition is 100% in the test on LYPLA2; 95% with APEH; 0% (inactive) with ABHD12; 0% (inactive) in the test on MAGL; 100% with KIAA1363; 100% in test [1]. In addition, the inhibition in test [2] is 100%; in the test on FAAH, 55%.

For `O=C(N(CCc1ccccc1)Cc1ccco1)n1cc(-c2ccc(OC(F)(F)F)cc2)nn1`, the inhibition in the test on LYPLA2 was 0% (inactive); in the test with APEH, 0% (inactive); in the test with ABHD12, 0% (inactive); in the test on MAGL it was 10% (inactive); in the test with KIAA1363, 55%; in test [1] it was 95%. Further, the inhibition is 0% (inactive) in test [2] and 95% in the test on FAAH.

Take `O=C(N1CCCCC1Cc1ccccc1)n1cc(-c2ccc(Br)cc2)nn1` (stereo not drawn): the inhibition in the test with LYPLA2 is 0% (inactive); in the test with APEH it was 0% (inactive); with ABHD12, 0% (inactive); in the test with MAGL it was 90%; with KIAA1363 it was 0% (inactive); in test [1], 90%. Besides, the inhibition in test [2] was 0% (inactive); in the test on FAAH it was 90%.

`O=C(N1CCCCC1Cc1ccccc1)n1cc(-c2ccc(-c3ccccc3CO)cc2)nn1` (stereo not drawn): the inhibition in the test with LYPLA2 was 20% (inactive); in the test with APEH it was 0% (inactive); with ABHD12, 10% (inactive); in the test with MAGL, 95%; in the test with KIAA1363, 0% (inactive); in test [1] it was 95%. Moreover, the inhibition is 20% (inactive) in test [2] and 55% in the test on FAAH.

In the case of `O=C(N1CCCCC1Cc1ccccc1)n1cc(-c2ccc(-c3ccc(C(F)(F)F)cc3)cc2)nn1` (stereo not drawn), the inhibition in the test on LYPLA2 was 0% (inactive); in the test with APEH it was 0% (inactive); in the test on ABHD12, 0% (inactive); in the test with MAGL, 10% (inactive); with KIAA1363, 60%; in test [1], 90%. The inhibition in test [2] was 0% (inactive); in the test on FAAH, 55%.

Regarding `O=C(N1CCCCC1Cc1ccccc1)n1cc(-c2cccc(-c3ccccc3)c2)nn1` (stereo not drawn), the inhibition in the test on LYPLA2 is 0% (inactive); in the test on APEH, 0% (inactive); in the test with ABHD12, 0% (inactive); with MAGL, 80%; in the test with KIAA1363, 0% (inactive); in test [1], 85%. Moreover, the values for the inhibition (in test [2]; in the test on FAAH) were 0% (inactive) and 65%, respectively.

As for `O=C(N1CCCCC1Cc1ccccc1)n1cc(-c2ccc(-c3ccccc3)cc2)nn1` (stereo not drawn), the inhibition was 0% (inactive) in the test with LYPLA2; 0% (inactive) with APEH; 0% (inactive) in the test on ABHD12; 0% (inactive) in the test with MAGL; 0% (inactive) with KIAA1363; 95% in test [1]. The inhibition (in test [2]; in the test with FAAH) was 0% (inactive) each time.

`O=C(N1CCCCC1Cc1ccccc1)n1ncc(C(O)(c2ccccc2)c2ccccc2)n1` (stereo not drawn): the inhibition in the test on LYPLA2 is 0% (inactive); in the test on APEH, 0% (inactive); in the test on ABHD12, 0% (inactive); with MAGL, 0% (inactive); with KIAA1363 it was 0% (inactive); in test [1], 85%. In addition, the inhibition (in test [2]; in the test on FAAH) was 0% (inactive) throughout.

Regarding `O=C(N1CCCCC1Cc1ccccc1)n1cc(-c2ccc(-c3ccc4c(c3)OCO4)cc2)nn1` (stereo not drawn), the inhibition in the test with LYPLA2 was 0% (inactive); in the test on APEH, 0% (inactive); in the test with ABHD12, 0% (inactive); in the test with MAGL, 0% (inactive); in the test on KIAA1363, 0% (inactive); in test [1], 90%. For the same compound, the inhibition is 0% (inactive) in test [2] and 50% in the test with FAAH.

On to `COc1ccccc1-c1ccc(-c2cn(C(=O)N3CCCCC3Cc3ccccc3)nn2)cc1` (stereo not drawn), for which the inhibition in the test with LYPLA2 is 0% (inactive); in the test on APEH it was 0% (inactive); with ABHD12, 0% (inactive); with MAGL it was 70%; in the test on KIAA1363, 0% (inactive); in test [1] it was 85%. The figures for the inhibition (in test [2]; in the test on FAAH) were 0% (inactive) and 10% (inactive), respectively.

As for `O=C(N1CCCCC1Cc1ccccc1)n1cc(-c2ccc(-c3cccc(C(F)(F)F)c3)cc2)nn1` (stereo not drawn), the inhibition in the test on LYPLA2 is 0% (inactive); in the test with APEH, 0% (inactive); in the test with ABHD12, 0% (inactive); in the test with MAGL, 1% (inactive); in the test on KIAA1363, 10% (inactive); in test [1], 85%. In addition, the inhibition is 0% (inactive) in test [2] and 65% in the test on FAAH.

For `O=C(N1CCCCC1Cc1ccccc1)n1ncc(-c2ccc(OC(F)(F)F)cc2)n1` (stereo not drawn), the inhibition with LYPLA2 is 0% (inactive); in the test with APEH it was 0% (inactive); with ABHD12 it was 0% (inactive); with MAGL it was 0% (inactive); in the test on KIAA1363 it was 90%; in test [1], 85%. Also, the inhibition in test [2] was 0% (inactive); in the test with FAAH, 98%.

Regarding `CC(C)(C)OC(=O)NCCCCCN(CCc1ccccc1)C(=O)n1cc(-c2ccc(OC(F)(F)F)cc2)nn1`, the inhibition was 0% (inactive) with LYPLA2; 0% (inactive) in the test on APEH; 0% (inactive) in the test on ABHD12; 10% (inactive) with MAGL; 0% (inactive) with KIAA1363; 95% in test [1]. For the same compound, the inhibition (in test [2]; in the test with FAAH) was 0% (inactive) throughout.

Consider `O=C(N1CCCCC1Cc1ccccc1)n1cc(-c2ccc(-c3ccc(OC(F)(F)F)cc3)cc2)nn1` (stereo not drawn), for which the inhibition was 0% (inactive) in the test with LYPLA2; 0% (inactive) in the test with APEH; 0% (inactive) with ABHD12; 0% (inactive) in the test on MAGL; 55% with KIAA1363; 90% in test [1]. In addition, the inhibition in test [2] was 0% (inactive); with FAAH it was 45% (inactive).

For `O=C(N1CCCCC1Cc1ccccc1)n1cc(-c2ccc(-c3cccc(CO)c3)cc2)nn1` (stereo not drawn), the inhibition was 0% (inactive) in the test on LYPLA2; 0% (inactive) with APEH; 0% (inactive) in the test with ABHD12; 10% (inactive) in the test on MAGL; 0% (inactive) in the test on KIAA1363; 90% in test [1]. The inhibition was 0% (inactive) in test [2] and 40% (inactive) in the test with FAAH.

`O=C(N1CCCCC1Cc1ccccc1)n1cc(-c2ccc(-c3ccccc3OC(F)(F)F)cc2)nn1` (stereo not drawn): the inhibition with LYPLA2 is 0% (inactive); with APEH it was 0% (inactive); in the test with ABHD12, 0% (inactive); in the test on MAGL, 60%; in the test with KIAA1363 it was 25% (inactive); in test [1] it was 85%. The results for the inhibition (in test [2]; in the test with FAAH) were 0% (inactive) and 45% (inactive), respectively.

As to `O=C(N1CCCCC1Cc1ccccc1)n1cc(-c2ccc(OC(F)(F)F)cc2)nn1` (stereo not drawn), the inhibition in the test with LYPLA2 is 0% (inactive); with APEH, 0% (inactive); in the test with ABHD12, 0% (inactive); in the test on MAGL it was 40% (inactive); in the test with KIAA1363 it was 40% (inactive); in test [1] it was 90%. Besides, the inhibition in test [2] is 0% (inactive); with FAAH, 65%.

Take `O=C(N1CCCCC1Cc1ccccc1)n1cc(-c2ccccc2-c2ccccc2)nn1` (stereo not drawn): the inhibition is 10% (inactive) with LYPLA2; 0% (inactive) with APEH; 0% (inactive) in the test with ABHD12; 75% with MAGL; 0% (inactive) with KIAA1363; 80% in test [1]. For the same compound, the figures for the inhibition (in test [2]; in the test with FAAH) were 10% (inactive) and 98%, respectively.

Regarding `CC(C)CN(CCc1ccccc1)C(=O)n1cc(-c2ccc(OC(F)(F)F)cc2)nn1`, the inhibition with LYPLA2 is 0% (inactive); in the test with APEH it was 0% (inactive); with ABHD12 it was 0% (inactive); with MAGL, 0% (inactive); with KIAA1363 it was 0% (inactive); in test [1] it was 90%. The inhibition (in test [2]; in the test with FAAH) was 0% (inactive) in each case.

Regarding `O=C(N1CCCCC1Cc1ccccc1)n1cc(-c2ccc(-c3ccccc3Cl)cc2)nn1` (stereo not drawn), the inhibition was 0% (inactive) in the test with LYPLA2; 0% (inactive) in the test with APEH; 0% (inactive) in the test on ABHD12; 10% (inactive) in the test with MAGL; 20% (inactive) with KIAA1363; 95% in test [1]. The values for the inhibition (in test [2]; in the test on FAAH) were 0% (inactive) and 30% (inactive), respectively.
